Assay results taken from ChEMBL document CHEMBL3885861, “Open TG-GATES”.

Species on record: Rattus norvegicus
Assay: Open TG-GATES - Regimen: Daily Repeat
Type: toxicity, organism-based, Sprague-Dawley
Set-up: regimen Daily Repeat, gender Male, age 6 weeks
Conditions: in vivo, po, 30 mg/kg, route gavage, dose level High; for APTT / Bas / Eos / Fbg / Hb / Ht / Lym / MCH / MCHC / MCV / Mono / Neu / PT / Plat / RBC / Ret / WBC: tissue Blood; for KIDNEY_L / KIDNEY_R / KIDNEY_TOTAL: tissue Kidney; for LIVER: tissue Liver; for A/G / ALP / ALT / AST / BUN / CRE / Ca / Cl / DBIL / GLC / IP / K / LDH / Na / PL / RALB / TBIL / TC / TG / TP / gamma-GTP: tissue Plasma

For `C=CCO` [ALLYL ALCOHOL], the TERMINAL_BW (72 h, time 3 day) was 229 g, the APTT (72 h, time 3 day) was 18.4 s and the Bas (72 h, time 3 day) was 0%. The Eos (72 h, time 3 day) was 0.8%, the Fbg (72 h, time 3 day) was 258.6 mg/dL and the Hb (72 h, time 3 day) was 13.4 g/dL. It also gave a Ht (72 h, time 3 day) of 39.4%, a Lym (72 h, time 3 day) of 80% and an MCH (72 h, time 3 day) of 20.9 pg. It also gave an MCHC (72 h, time 3 day) of 33.9%, an MCV (72 h, time 3 day) of 61.7 fL and a Mono (72 h, time 3 day) of 3.4%. The Neu (72 h, time 3 day) was 15.2%, the PT (72 h, time 3 day) was 11.7 s and the Plat (72 h, time 3 day) was 142.1 x10_4/uL. The RBC (72 h, time 3 day) was 639.6 x10_4/ul, the Ret (72 h, time 3 day) was 4.7% and the WBC (72 h, time 3 day) was 128.3 x10_2/uL. The KIDNEY_L (72 h, time 3 day) was 1 g, the KIDNEY_R (72 h, time 3 day) was 1 g and the KIDNEY_TOTAL (72 h, time 3 day) was 2 g. For the same compound, the LIVER (72 h, time 3 day) was 11.1 g, the A/G (72 h, time 3 day) was 1.5 and the ALP (72 h, time 3 day) was 874.6 IU/L. It also gave an ALT (72 h, time 3 day) of 39.6 IU/L, an AST (72 h, time 3 day) of 71 IU/L and a BUN (72 h, time 3 day) of 13.6 mg/dL. For the same compound, the CRE (72 h, time 3 day) was 0.4 mg/dL, the Ca (72 h, time 3 day) was 10.5 mg/dL and the Cl (72 h, time 3 day) was 103.2 meq/L. For the same compound, the DBIL (72 h, time 3 day) was 0.058 mg/dL, the GLC (72 h, time 3 day) was 206.2 mg/dL and the IP (72 h, time 3 day) was 7.4 mg/dL. It also gave a K (72 h, time 3 day) of 3.5 meq/L, an LDH (72 h, time 3 day) of 221.2 IU/L and a Na (72 h, time 3 day) of 141.2 meq/L. For the same compound, the PL (72 h, time 3 day) was 125.4 mg/dL, the RALB (72 h, time 3 day) was 3 g/dL and the TBIL (72 h, time 3 day) was 0.1 mg/dL. For the same compound, the TC (72 h, time 3 day) was 73.2 mg/dL, the TG (72 h, time 3 day) was 59 mg/dL and the TP (72 h, time 3 day) was 5 g/dL. It also gave a gamma-GTP (72 h, time 3 day) of 1 IU/L, a TERMINAL_BW ([…], time 7 day) of 238.1 g and a TERMINAL_BW ([…], time 14 day) of 285 g. It also gave a TERMINAL_BW ([…], time 28 day) of 374.2 g, an APTT ([…], time 7 day) of 21.6 s and a Bas ([…], time 7 day) of 0%. It also gave an Eos ([…], time 7 day) of 0.8%, a Fbg ([…], time 7 day) of 334.8 mg/dL and a Hb ([…], time 7 day) of 14 g/dL. It also gave a Ht ([…], time 7 day) of 40.7%, a Lym ([…], time 7 day) of 74% and an MCH ([…], time 7 day) of 20.6 pg. For the same compound, the MCHC ([…], time 7 day) was 34.4%, the MCV ([…], time 7 day) was 60.2 fL and the Mono ([…], time 7 day) was 5.6%. For the same compound, the Neu ([…], time 7 day) was 18.2%, the PT ([…], time 7 day) was 13.1 s and the Plat ([…], time 7 day) was 146.5 x10_4/uL. It also gave an RBC ([…], time 7 day) of 676 x10_4/ul, a Ret ([…], time 7 day) of 3.1% and a WBC ([…], time 7 day) of 193.8 x10_2/uL. For the same compound, the APTT ([…], time 14 day) was 19.2 s, the Bas ([…], time 14 day) was 0% and the Eos ([…], time 14 day) was 0.8%. It also gave a Fbg ([…], time 14 day) of 250.6 mg/dL, a Hb ([…], time 14 day) of 13.7 g/dL and a Ht ([…], time 14 day) of 40%. The Lym ([…], time 14 day) was 70.2%, the MCH ([…], time 14 day) was 19.6 pg and the MCHC ([…], time 14 day) was 34.2%. The MCV ([…], time 14 day) was 57.3 fL, the Mono ([…], time 14 day) was 3.8% and the Neu ([…], time 14 day) was 24.8%. The PT ([…], time 14 day) was 12.4 s, the Plat ([…], time 14 day) was 192.6 x10_4/uL and the RBC ([…], time 14 day) was 698 x10_4/ul. The Ret ([…], time 14 day) was 5.4%, the WBC ([…], time 14 day) was 181.3 x10_2/uL and the APTT ([…], time 28 day) was 20.5 s. The Bas ([…], time 28 day) was 0%, the Eos ([…], time 28 day) was 1.2% and the Fbg ([…], time 28 day) was 218.6 mg/dL. It also gave a Hb ([…], time 28 day) of 15.2 g/dL, a Ht ([…], time 28 day) of 44.1% and a Lym ([…], time 28 day) of 78%. It also gave an MCH ([…], time 28 day) of 18.7 pg, an MCHC ([…], time 28 day) of 34.5% and an MCV ([…], time 28 day) of 54.3 fL. For the same compound, the Mono ([…], time 28 day) was 2.8%, the Neu ([…], time 28 day) was 17.2% and the PT ([…], time 28 day) was 12.1 s. For the same compound, the Plat ([…], time 28 day) was 107.4 x10_4/uL, the RBC ([…], time 28 day) was 813.2 x10_4/ul and the Ret ([…], time 28 day) was 2.8%. The WBC ([…], time 28 day) was 109.1 x10_2/uL, the KIDNEY_L ([…], time 7 day) was 1 g and the KIDNEY_R ([…], time 7 day) was 1.1 g. It also gave a KIDNEY_TOTAL ([…], time 7 day) of 2.1 g, a KIDNEY_L ([…], time 14 day) of 1.2 g and a KIDNEY_R ([…], time 14 day) of 1.2 g. The KIDNEY_TOTAL ([…], time 14 day) was 2.4 g, the KIDNEY_L ([…], time 28 day) was 1.3 g and the KIDNEY_R ([…], time 28 day) was 1.3 g. For the same compound, the KIDNEY_TOTAL ([…], time 28 day) was 2.6 g, the LIVER ([…], time 7 day) was 12.6 g and the LIVER ([…], time 14 day) was 14.4 g. It also gave an LIVER ([…], time 28 day) of 16.7 g, an A/G ([…], time 7 day) of 1.2 and an ALP ([…], time 7 day) of 938.4 IU/L. For the same compound, the ALT ([…], time 7 day) was 195.4 IU/L, the AST ([…], time 7 day) was 610 IU/L and the BUN ([…], time 7 day) was 11.4 mg/dL. It also gave a CRE ([…], time 7 day) of 0.4 mg/dL, a Ca ([…], time 7 day) of 10.6 mg/dL and a Cl ([…], time 7 day) of 102.4 meq/L. It also gave a DBIL ([…], time 7 day) of 0.088 mg/dL, a GLC ([…], time 7 day) of 182.4 mg/dL and an IP ([…], time 7 day) of 7 mg/dL. It also gave a K ([…], time 7 day) of 3.7 meq/L, an LDH ([…], time 7 day) of 310.6 IU/L and a Na ([…], time 7 day) of 140.6 meq/L. For the same compound, the PL ([…], time 7 day) was 130.8 mg/dL, the RALB ([…], time 7 day) was 3 g/dL and the TBIL ([…], time 7 day) was 0.2 mg/dL. It also gave a TC ([…], time 7 day) of 72.6 mg/dL, a TG ([…], time 7 day) of 62.8 mg/dL and a TP ([…], time 7 day) of 5.6 g/dL. It also gave a gamma-GTP ([…], time 7 day) of 2.6 IU/L, an A/G ([…], time 14 day) of 1.3 and an ALP ([…], time 14 day) of 758.4 IU/L. It also gave an ALT ([…], time 14 day) of 42.8 IU/L, an AST ([…], time 14 day) of 85.6 IU/L and a BUN ([…], time 14 day) of 14.2 mg/dL. The CRE ([…], time 14 day) was 0.4 mg/dL, the Ca ([…], time 14 day) was 10.7 mg/dL and the Cl ([…], time 14 day) was 101.8 meq/L. The DBIL ([…], time 14 day) was 0.07 mg/dL, the GLC ([…], time 14 day) was 202.6 mg/dL and the IP ([…], time 14 day) was 6.7 mg/dL. The K ([…], time 14 day) was 3.5 meq/L, the LDH ([…], time 14 day) was 234.8 IU/L and the Na ([…], time 14 day) was 141 meq/L. For the same compound, the PL ([…], time 14 day) was 140.8 mg/dL, the RALB ([…], time 14 day) was 3.4 g/dL and the TBIL ([…], time 14 day) was 0.1 mg/dL. For the same compound, the TC ([…], time 14 day) was 70.2 mg/dL, the TG ([…], time 14 day) was 69.6 mg/dL and the TP ([…], time 14 day) was 5.9 g/dL. It also gave a gamma-GTP ([…], time 14 day) of 1.4 IU/L, an A/G ([…], time 28 day) of 1.2 and an ALP ([…], time 28 day) of 615.8 IU/L. The ALT ([…], time 28 day) was 39.2 IU/L, the AST ([…], time 28 day) was 64 IU/L and the BUN ([…], time 28 day) was 16.8 mg/dL. The CRE ([…], time 28 day) was 0.5 mg/dL, the Ca ([…], time 28 day) was 10.5 mg/dL and the Cl ([…], time 28 day) was 102.6 meq/L. The DBIL ([…], time 28 day) was 0.068 mg/dL, the GLC ([…], time 28 day) was 220.6 mg/dL and the IP ([…], time 28 day) was 5.6 mg/dL. The K ([…], time 28 day) was 3.5 meq/L, the LDH ([…], time 28 day) was 188.2 IU/L and the Na ([…], time 28 day) was 139.6 meq/L. For the same compound, the PL ([…], time 28 day) was 135.6 mg/dL, the RALB ([…], time 28 day) was 3.3 g/dL and the TBIL ([…], time 28 day) was 0.1 mg/dL. The TC ([…], time 28 day) was 65.6 mg/dL, the TG ([…], time 28 day) was 98.6 mg/dL and the TP ([…], time 28 day) was 6 g/dL. For the same compound, the gamma-GTP ([…], time 28 day) was 1 IU/L.
